The text below walks through data of patent US10259852B2, “Conjugate comprising P21 protein for the treatment of cancer” (ANASTASIS BIOTEC LIMITED, priority 2005, dated 2019).

The subject of one assay is ASPC1. Briefly: Cell translocation experiment. Type of assay: cell-based, human. The settings on record: incubated 10 and 60 min, various dilutions, 37° C. On the procedure: (§1) The production of the fusion protein allowed a cell translocation experiment to be performed, to test the ability of the antennapedia-containing fusion protein to translocate across biological membranes. Two cell lines were used in this experiment, ASPC1 and HeLa (ASPC1—human pancreatic adenocarcinoma, HeLa—human cervical adenocarcinoma). The protein was incubated for 10 and 60 min on cells in various dilutions at 37° C. Translocation of the fusion protein was evident in both cell lines, even after only ten minutes of incubation.

Another assay relates to HeLa. Briefly: Cell translocation experiment. The settings on record: incubated 10 and 60 min, various dilutions, 37° C. Type of assay: cell-based, human. As for the experimental part: as §1

Take “P21 protein: P21 tumour suppressor protein expressed alone, without translocation factor; human P21 is SEQ ID NO:1”: the Translocation across cells entry with ASPC1 and in the assay with HeLa was “did not appear to translocate” throughout.
